According to PMC5429621 (Scientific Reports, 2017):
Residue numbers refer to the chain shown, from its start.

Key:
other P2XR subtypes = conditions: cited from earlier work
hP2X7-2Nβ K110Y = molecular target: T1, hP2X7-2Nβ K110Y (Homo sapiens, UniProt Q99572, I21V/K110Y/M24R/N16P/N25R/Q22R/R20V/S23N/T19I/Y26L); assay: two-electrode voltage clamp, Xenopus oocytes; type: cell-based; conditions: relative to P2X7-2Nβ
T1 construct: expressed in transfected cells; host or cells: Xenopus laevis oocytes (cRNA injection)
T1 sequence (Q99572 1-595 N16P/T19I/R20V/I21V/Q22R/S23N/M24R/N25R/Y26L/K110Y): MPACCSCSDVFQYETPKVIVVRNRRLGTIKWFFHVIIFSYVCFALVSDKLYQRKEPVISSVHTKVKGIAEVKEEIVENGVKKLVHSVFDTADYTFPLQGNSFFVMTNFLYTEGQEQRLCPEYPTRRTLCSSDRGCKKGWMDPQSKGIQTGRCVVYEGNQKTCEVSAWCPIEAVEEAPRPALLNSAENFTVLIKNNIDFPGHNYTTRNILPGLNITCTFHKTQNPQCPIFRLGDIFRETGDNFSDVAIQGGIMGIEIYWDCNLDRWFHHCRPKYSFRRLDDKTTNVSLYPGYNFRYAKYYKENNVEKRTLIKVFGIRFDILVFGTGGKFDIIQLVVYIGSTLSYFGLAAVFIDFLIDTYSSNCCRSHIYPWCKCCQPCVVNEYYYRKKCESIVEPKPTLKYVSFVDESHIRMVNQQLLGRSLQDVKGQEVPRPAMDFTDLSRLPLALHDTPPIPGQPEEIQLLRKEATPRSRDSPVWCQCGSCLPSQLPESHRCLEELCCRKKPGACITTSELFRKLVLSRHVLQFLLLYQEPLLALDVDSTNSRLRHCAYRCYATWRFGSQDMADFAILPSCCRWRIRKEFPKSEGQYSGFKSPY
From the text: (§1) The hP2X1R was a gift from Dr Lin-Hua Jiang (University of Leeds, UK) and the hP2X1R cDNA has been described previously. Chimeras were generated by megaprimer-mediated domain swapping. In addition to chimeras, point mutations, deletions and insertions were made using the QuikChange (Stratagene) or Q5 (New England Bioscience) mutagenesis kits. The production of the correct mutations and absence of coding errors was verified by DNA sequencing (Automated ABI Sequencing Service, University of Leicester, UK).
(§2) P2XR constructs were transcribed to produce sense-strand cRNA (mMessage mMachine, Ambion, Austin, TX). Manually defoliculated stage V Xenopus laevis oocytes were injected with 50 nl (50 ng) of cRNA using an Inject + Matic microinjector (J.A. Gaby, InjectMatic, Geneva, Switzerland) and stored at 16 °C in ND96 buffer (in mM, NaCl 96, KCl 2, CaCl2 1.8, MgCl2 1, sodium pyruvate 5, HEPES 5 (pH 7.6) supplemented with 50 µg/ml gentamycin and 50 µg/ml tetracycline). For electrophysiological recordings (3–7 days post-injection) oocytes were bathed in divalent free ND96 buffer (in mM, NaCl 96, KCl 2, sodium pyruvate 5, HEPES 5 and 0.1 flufenamic acid, pH 7.6).
(§3) ATP (sodium salt, Sigma) was applied via a U-tube perfusion system for 3 s at 3–5 minute intervals to allow reproducible responses to be recorded. […] To standardize for any change in ATP sensitivity at mutant receptors antagonists were co-applied with an EC90 concentration of ATP.
(§4) Concentration response curves were normalized to the maximal response and fitted with the Hill equation (variable slope) with GraphPad Prism 6 (Graphpad software, San Diego, CA). […] Individual concentration response curves were generated for individual experiments and statistical analysis was carried out on the data generated. In the figures the inhibition curves are fitted to the mean normalized data. Any significant differences were calculated by one-way analysis of variance, followed by Bonferroni’s test (using GraphPad Prism 6). Data are shown as mean ± SEM.

hP2X7-2Nβ K297G = molecular target: T2, hP2X7-2Nβ K297G (Homo sapiens, UniProt Q99572, I21V/K297G/M24R/N16P/N25R/Q22R/R20V/S23N/T19I/Y26L); assay: two-electrode voltage clamp, Xenopus oocytes; type: cell-based; conditions: relative to P2X7-2Nβ
T2 construct: expressed in transfected cells; host or cells: Xenopus laevis oocytes (cRNA injection)
T2 sequence (Q99572 1-595 N16P/T19I/R20V/I21V/Q22R/S23N/M24R/N25R/Y26L/K297G): T1 sequence (Q99572 1-595 N16P/T19I/R20V/I21V/Q22R/S23N/M24R/N25R/Y26L/K110Y) with Y110K, K297G
From the text: as §1, §2, §3, §4

[1] = test system: hP2X7-2Nβ 74–79 C mutants; assay: two-electrode voltage clamp, Xenopus oocytes; type: cell-based, human; conditions: response to EC90 ATP
From the text: as §1
P2XR constructs were transcribed to produce sense-strand cRNA (mMessage mMachine, Ambion, Austin, TX). […]
Two-electrode voltage clamp recordings were carried out using a GeneClamp 500B amplifier with a Digidata 1322 A analog to digital convertor and pCLAMP 8.2 acquisition software (Molecular Devices, Menolo Park, CA) at a holding potential of −60 mV. ATP (sodium salt, Sigma) was applied via a U-tube perfusion system for 3 s at 3–5 minute intervals to allow reproducible responses to be recorded. […]
Concentration response curves were normalized to the maximal response and fitted with the Hill equation (variable slope) with GraphPad Prism 6 (Graphpad software, San Diego, CA). […] Any significant differences were calculated by one-way analysis of variance, followed by Bonferroni’s test (using GraphPad Prism 6). […]

Structure (SMILES): Cl.Cl.O=C(CC12CC3CC(CC(C3)C1)C2)Nc1cccc2nc(NCCNCCO)ccc12 [AZ10606120, N-[2-[[2-[(2-Hydroxyethyl)amino]ethyl]amino]-5-quinolinyl]-2-tricyclo[3.3.1.13,7]dec-1-ylacetamide dihydrochloride]
- effect at other P2XR subtypes (other P2XR subtypes): little or no effect
- increase in sensitivity to AZ10606120 (hP2X7-2Nβ K110Y): ~ 100 fold
- increase in AZ10606120 sensitivity (hP2X7-2Nβ K297G): > 100 fold
- level of inhibition to 30 nM AZ10606120 [1]: ~ 70%
